Reference: patent US10563263B2, “Genetic polymorphisms associated with statin response and cardiovascular diseases, methods of detection and uses thereof” (CELERA CORPORATION, priority 2010, dated 2020)

Key:
recurrent MI = experiment: CARE: CHD statin response (recurrent MI) by SNP genotype, hazard ratio pravastatin vs placebo (Table 22); format: in vivo, human; details: rs873134 (hCV2652047), ref = placebo
Excerpt: (§1) In the analysis for which the results are provided in Table 22, the endpoint was recurrent MI, and the analysis was adjusted for age, gender, hypertension, diabetes, base LDL and HDL, and whether an individual was a current smoker.
In Tables 20-22, certain columns are labeled “RESP”, “PLACEBO, OR “ALL”. “RESP” is for statin response as measured by comparing risk (risk for stroke, including TIA, in Tables 20-21, and risk for CHD, specifically recurrent MI, in Table 22) in the pravastatin-treated group with risk in the placebo-treated group, “PLACEBO” is the placebo-treated group, and “ALL” is the combination of the placebo-treated group and the pravastatin-treated group. “RESP” is the analysis to assess statin response in the indicated genotype group.
“EVENTS” indicates the total number of events (stroke or TIA for Tables 20-21, and recurrent MI for Table 22) in individuals with the indicated genotype.
“HR” indicates the hazard ratio.
CARE was a secondary prevention trial and WOSCOPS was a primary prevention trial.
as §1, with “Thus, SNP rs873134 is an example of a SNP that is associated with statin response for reducing risk for both stroke and CHD. In” for “In”

CHD or CVD = experiment: WOSCOPS: SNP by pravastatin treatment interaction, logistic regression (synergy index), cohort source; End-point (CHD or CVD) of the marker not given; format: in vivo, human

With `CC[C@H](C)C(=O)O[C@H]1C[C@H](O)C=C2C=C[C@H](C)[C@H](CC[C@@H](O)C[C@@H](O)CC(=O)O)[C@H]21` [Pravastatin, pravastatin] the “HR_RESP (hazard ratio pravastatin vs placebo, CHD)” value (recurrent MI; MODE DOM, genotype TC + TT) was 0.85, the “HR_RESP (hazard ratio pravastatin vs placebo, CHD)” value (recurrent MI; MODE GEN, genotype CC) was 0.48 and the “HR_RESP (hazard ratio pravastatin vs placebo, CHD)” value (recurrent MI; MODE GEN, genotype TC) was 1. For the same compound, the “HR_RESP (hazard ratio pravastatin vs placebo, CHD)” value (recurrent MI; MODE GEN, genotype TT) was 0.57, the OR (CHD or CVD; marker rs1068705, pravastatin vs placebo) was 0.74 and the OR (CHD or CVD; marker rs1564078, pravastatin vs placebo) was 0.79. For the same compound, the OR (CHD or CVD; marker rs9557509, pravastatin vs placebo) was 1.42, the OR (CHD or CVD; marker rs10802865, pravastatin vs placebo) was 1.16 and the OR (CHD or CVD; marker rs11668038, pravastatin vs placebo) was 1.25. For the same compound, the OR (CHD or CVD; marker rs17035071, pravastatin vs placebo) was 1.22.
